According to BindingDB's records for PubMed 10087012 (Medical College of Georgia, 1999):

Target: Sigma non-opioid intracellular receptor 1 (Homo sapiens, UniProt Q99720)
Sequence (Q99720 whole entry): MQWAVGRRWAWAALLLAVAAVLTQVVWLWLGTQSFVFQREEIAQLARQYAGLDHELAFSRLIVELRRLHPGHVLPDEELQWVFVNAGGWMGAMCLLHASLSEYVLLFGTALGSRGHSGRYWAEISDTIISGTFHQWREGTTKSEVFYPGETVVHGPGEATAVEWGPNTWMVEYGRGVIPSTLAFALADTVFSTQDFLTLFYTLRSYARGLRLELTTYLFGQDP

Q: With `C#CCN(C)CCCOc1ccc(Cl)cc1Cl` [US8633208, Clorgyline] as the compound, how does the Ki read?
A: The Ki was 0.0087 µM.

Q: Which Ki does the source give for `O=c1[nH]c2nccn2c2c1ncn2C1CC(O)C(COP(=O)(O)OP(=O)(O)OP(=O)(O)O)O1` (centres undefined) [CAS_85976-54-1] here?
A: The Ki was 0.042 µM.

Q: `COc1ccc2c(c1)C13CCCCC1C(C2)N(C)CC3` (centres undefined) [Levomethorpan] was tested. Which Ki did it give?
A: The Ki was 0.521 µM.

Q: With `CCN(CC)CCOCCOC(=O)C1(c2ccccc2)CCCC1` [SMR000326757] as the compound, how does the Ki read?
A: The Ki was 0.0104 µM.
